Patent publication US12605386B2, “Sapropterin formulation” (APR Applied Pharma Research SA, priority 2022, dated 2026)
Like-named read-outs stand apart in the source and are kept apart here.

Columns and labels:
[1] = cited from earlier work
[2] = Vegetable oil suspension stability study, water extraction and HPLC; assay type: physicochemical; settings: oil free control; freshly prepared aqueous solutions
Procedure: A simple stability study was carried out to establish the stability potential of the formulations tested. The stability study was carried out for a month at room temperature as this would reflect the conditions under which the material would be stored.
The stability work was focused on vegetable oils. Food grade vegetable oils were tested and they were sourced from a supermarket and only opened before starting the stability work. Exploratory stability work was then carried out to establish the potential of liquid formulations for sunflower oil, olive oil, rapeseed oil and rice bran oil.
Stability was informally assessed by preparing 10% w/w sapropterin suspensions and storing at room temperature on a shelf away from direct sunlight. Individual aliquots were prepared at each time point. At each sampling point sapropterin was extracted from oil with water as set out below and the sample analysed by HPLC. Absence of degradation products was used to establish lack of oxidation. The HPLC method set out above was not validated for quantitative analysis. Instead, SPT peak size was also semi-quantitatively used to further corroborate absence of oxidation but this was carried out by simply overlaying traces (e.g. SPT peak size at day 0 vs day 7) rather than performing calibrations curves of SPT. […]
Samples were analysed at day 0, day 5, day 7, and/or day 31.

[3] = powder and tablet formulations suspended in various foods and water at 20 mg/mL (62 mM); after one hour; cited from earlier work
[4] = cited from earlier work; remark: listed apart in the source
[5] = Visual observation of unformulated SPT solutions; assay type: physicochemical; settings: 100 mM solutions; yellow/orange colour developed overtime
Procedure: Stability over time of unformulated SPT solutions was initially investigated through visual observation of 100 mM solutions. The solutions were seen to be very unstable and a yellow/orange colour developed overtime, presumably due to the formation of oxidation sub-products.

[6] = Peroxide degradation of sapropterin with HPLC analysis; assay type: physicochemical; settings: peroxide degradation: 5 mL of 0.1% H2O2, 1.5 hours, room temperature
Procedure: A sample of sapropterin was subjected to peroxide degradation with 5 mL of 0.1% H2O2 for 1.5 hours at room temperature.
HPLC analysis of the resulting oxidative degradation of sapropterin was performed according to the procedure described below and the results are shown in Table 2.
• Column: YMC Pack ODS AQ (250×4.6) mm, […] • Buffer: potassium dihydrogen phosphate pH3.0 with orthophosphoric acid • Mobile Phase A: 100% Buffer • Mobile Phase B: acetonitrile:methanol (1:9) • Wavelength: 220 nm for Impurity A, C, D, E, G • Wavelength: 275 nm for Impurity F • Flow: 0.6 ml/min • Injection Volume: 5 μl • Column Temperature: 30° C. • Sample Compartment: 5° C. • Run Time: 45 min Preparation of Mobile Phase: • Mobile Phase A: 2.72 g of potassium dihydrogen phosphate was added to 1000 ml of water and dissolved. pH was adjusted to 3.0 using orthophosphoric acid. The solution was mixed and filtered through 0.45 μm nylon membrane filter and degassed. • Mobile Phase B: 900 ml of methanol and 100 ml of acetonitrile was dissolved, mixed, and degassed.
Preparation of 0.1N HCl: 8.5 ml of hydrochloric acid was added to 900 ml of water, diluted to 1000 ml with water, and then mixed.
Diluent: 2.72 g of potassium dihydrogen phosphate was added to 1000 ml of water and dissolved. pH was adjusted to 3.0 using orthophosphoric acid. 10 mg of ascorib acid was added, mixed, and then filtered through 0.45 μm nylon membrane filter and degassed.

[7] = HPLC analysis of sapropterin solutions in water; assay type: physicochemical
Procedure: Visual observations of degradation of sapropterin solutions were confirmed through HPLC analysis. The following methodology was used: Samples that were diluted to ca. 1 mM prior to analysis. HPLC Method • Column: Partisil […] SCX 250× (from […]) • Mode: isocratic • Mobile phase: KH2PO4 30 mM at pH 3.0 • Oven temperature: 30° C. • injection volume: 25 μL • flow: 1.5 mL/min (generated ca. 60 bar) • Detection: DAD 254-360 with acquisition at 254 HPLC System (VWR Hitachi) • VWR Hitachi L-2000 organizer • DAD: L2455 • Autosampler: L2200 • Pump: L2130 • Column oven: L2350 Preparation of Mobile Phase • 1) V (H2O)=500 mL • 2) m(KH2PO4)=2.04 g (MW=136.09 g/mol) • 3) To pH 3 with phosphoric acid diluted 50 fold with water (v/v) • Note: prior to dilution phosphoric acid stock was at 85% • Note2: 5-8 g of 1/50 diluted solution are required to drop pH to 3.0 Three solutions of sapropterin in water at 100 mM were submitted to HPLC analysis. Each solution was tested at a different time point one was tested when freshly prepared, one after one day and the other after 7 weeks old.

[8] = 0.1 M phosphate buffer, pH 6.8, room temperature

oxidation products by HPLC [2]: vestigial amounts of oxidation products
stability over time (visual observation) [5]: very unstable
Impurities (% w/w): Impurity A [6]: 0.02 % w/w
Impurities (% w/w): Impurity B [6]: 11.791 % w/w
Impurities (% w/w): Impurity C [6]: 5.322 % w/w
Impurities (% w/w): Impurity D [6]: 0.116 % w/w
Impurities (% w/w): Impurity H [6]: 0.106 % w/w
Impurities (% w/w): Unknown impurity @RRT 0.70 [6]: 0.191 % w/w
Impurities (% w/w): Unknown impurity @RRT 0.85 [6]: 0.026 % w/w
Impurities (% w/w): Unknown impurity @RRT 0.89 [6]: 0.010 % w/w
Impurities (% w/w): Unknown impurity @RRT 0.94 [6]: 0.108 % w/w
Impurities (% w/w): Unknown impurity @RRT 1.11 [6]: 0.015 % w/w
Impurities (% w/w): Unknown impurity @RRT 1.41 [6]: 0.212 % w/w
Impurities (% w/w): Unknown impurity @RRT 1.54 [6]: 0.022 % w/w
Impurities (% w/w): Unknown impurity @RRT 1.63 [6]: 0.010 % w/w
Impurities (% w/w): Unknown impurity @RRT 1.77 [6]: 0.007 % w/w
Impurities (% w/w): Unknown impurity @RRT 2.08 [6]: 0.004 % w/w
Impurities (% w/w): Unknown impurity @RRT 2.15 [6]: 0.007 % w/w
Impurities (% w/w): Unknown impurity @RRT 2.24 [6]: 0.006 % w/w
Impurities (% w/w): Unknown impurity @RRT 2.34 [6]: 0.095 % w/w
major degradation products [6]: Impurities B and C
time after which an oxidation sub-product peak became evident ([7]; 1 mM solution): 2 h
oxidation product by HPLC ([7]; 100 mM in water, freshly prepared): did not show any oxidation product
reduction in the SPT peak by oxidation ([7]; 100 mM in water, within a period of 24 h): not pronounced
Structure (SMILES): C[C@H](O)[C@H](O)[C@H]1CNc2nc(N)[nH]c(=O)c2N1 [Sapropterin, sapropterin]
pH of solution in water ([1]; 1 mM solution): 3.0
pH of solution in water ([1]; 1 M solution): 0.45
solubility in water [1]: freely soluble
sapropterin degraded [3]: 3-7%
degradation of solution in water ([4]; 0.1 mM, after 1 hour open at room temperature): about 25%
degradation of solution in water ([4]; 0.1 mM, after 3 hours): more than 60%
degradation of solution in water ([4]; 1 mM, after 1 hour open at room temperature): 2%
degradation of solution in water ([4]; 1 mM, after 3 hours): 10%
half-life [4, 8]: ~16 min
time until completely destroyed [4, 8]: 90 min
stability of solutions in 0.1 N HCl ([4]; −20° C.): stable for several weeks
oxidation product by HPLC ([7]; 100 mM in water, after 7 weeks): showed a peak at 4.2 min attributed to oxidation sub-products
oxidation product by HPLC ([7]; 100 mM in water, after one day): showed a peak at 4.2 min attributed to oxidation sub-products
